Assay results published in US7728105B2, “Peptides impairing PBX dependent gene regulation” (St. George's Hospital Medical School, priority 2002, dated 2010).
Entries after “also recorded” stand apart in the source; their conditions may differ.

Columns and labels:
Type in all cases: cell-based, human
malignant cell lines = assay: Proliferation of malignant cell lines over seven days in culture; parameters: effect of increased dose on proliferation of malignant cell lines: dose or concentration left out as unconfirmed
Procedure: A number of cell lines representing different malignancies were grown in culture for seven days, and HXP peptide or the control peptide CXP were added to a final concentration of 20 μg/ml on day 3. The bars represent the fold increase of each cell line over the seven days; the empty, dashed bars indicate the CXP peptide treated cells, whilst the solid bars indicate the addition of HXP peptide. Error bars represent the standard error the mean, and n is the number of experiments performed. The cell lines used were: AML—KG1a; Bladder—HT; Breast—SKBR3; Cervical—HeLa; Colon—Colo41; Gastric—MKN-45; Large cell lung cancer—MES; Melanoma—DX3; Ovarian—1847; Pancreatic—Panc-Tu1; Prostate—LNCAP; Renal—HT1376; Small cell lung cancer—NCI-h510A. The change in the expression of the HOX genes expressed by each cell line was assessed by RT-PCR on RNA extracted from the cells at the end of seven days. ‘HOX gene inactivated’ means that the level of expression of each of the listed HOX genes was at least five fold lower in the HXP peptide treated cells compared to the control. *Analysis not yet complete.
A number of cell lines representing different malignancies were grown in culture for seven days, and HXP peptide or the control peptide CXP were added to a final concentration of 200 μg/ml on day 3. The bars represent the fold increase of each cell line over the seven days; the empty, dashed bars indicate the CXP peptide treated cells, whilst the solid bars indicate the addition of HXP peptide. Error bars represent the standard error the mean, and n is the number of experiments performed. The cell lines used were: Bladder—HT; Cervical—HeLa; Melenoma—DX3; Pancreatic—Panc-Tu1.
Solid tumour cell lines (Cancer Research UK) were seeded at 4×10^4 cells/ml, in a liquid culture system made of appropriate medium (see table, Sigma-Aldrich, UK) supplemented with 10% FCS (Sigma Aldrich) and penstrep (1% Sigma). All cell lines were grown with HXP peptide (as in Example 3, 20 μg/ml or 200 μg/ml) or control peptide CXP (20 μg/ml or 200 μg/ml).
KG1a, KG1, HL60 and U937 cell lines (EACC, UK) were seeded at 5×10^4 cells/ml, in a liquid culture system made of RPMI-1640 medium (Life Technologies, UK) supplemented with 10% FCS (Sigma Aldrich) and gentamicin (50 μg/ml Life Technologies) in triplicates. All cell lines were grown with HXP peptide peptide (20 μg/ml) or control peptide (20 μg/ml).
Cell lines were cultured for various time points at 37° C., 5% CO2 in humidified atmosphere and enumerated at various time points.

[1] = system: leukaemic cell lines KG1a, KG1, HL60 and U937; assay: Leukaemic cell lines culture, trypan blue cell count (Example 1); settings: 20 μg/ml
Procedure: KG1a, KG1, HL60 and U937 cell lines were obtained from the ATCC (catalogue Nos. CCL-246.1, CCL-246, CCL-240 and CRL-1593.2, respectively.
Cell lines were seeded at 1-5×10^5 cells/ml in liquid culture system made of RPMI-1640 medium (Life Technologies, UK) supplemented with Foetal Calf Serum (10% Sigma Aldrich) and gentamycin (50 μg/ml, Life Technologies) and at least in duplicate. When required the HXP peptide was added to the medium (20 μg/ml). Cell lines were cultured for up to 7 days at 37° C., 5% CO2 in humidified atmosphere. Cultured cells were then counted at various time points using trypan blue exclusion method described above.

AC133+ cells = assay: Short-term ex-vivo AC133+ cell expansion culture with HXP peptide, trypan blue cell count
Procedure: Umbilical Cord Blood (UCB) specimens were collected from full-term deliveries scheduled for elective caesarian sections following hospital ethical regulations.
Samples were diluted 1 in 4 in PBS supplemented with a citrate-based anti-coagulant (0.6% ACD-A, Baxter, France) and Bovine Serum Albumin (0.5% fraction V, Sigma Aldrich, UK) at pH=7.4 and referenced as “ACD-A buffer”. Diluted UCB was carefully overlaid in a 1:4 ratio onto a research grade Ficoll-Paque solution (d:1.077 g/cm^3, Pharmacia Biotech, Sweden) prior to Centrifugation (400 g, 30 minutes, 22° C.). The mononuclear cells (MNC) layer was extracted, washed twice in ACD-A Buffer, pelleted (400 g, 10 minutes) before resuspending in ACD-A buffer and cell aliquots taken for cell viability/enumeration using trypan blue (Sigma Aldrich).
AC133+ cells were obtained from MNC after immunomagnetic separation using the AC133 mini-MACS selection kit (Miltenyi Biotec, Germany): labelling volume 500 μl/10^8 cells in ACD-A buffer containing Fc Receptor-blocking reagent (100 μl, 5 min incubation, 4° C.) before adding colloidal super-paramagnetic MACS MicroBeads conjugated to monoclonal mouse anti-human AC133/1 antibody (100 μl IgG1 isotype, 25 min incubation, 4° C.). Cells were then washed (5 ml ACD-A buffer, 400 g, 10 min, 4° C.) before resuspended cells in 500 μl ACD-A buffer were applied to a chilled MACS positive selection column (MS+/RS+) on a magnet. The column was rinsed with cool ACD-A buffer (4×500 μl) and the AC133− cell population retained at 4° C. After magnet removal AC133+ cells were eluted with 1 ml of cold ACD-A buffer. The AC133+ cell fraction was reapplied to a new column, prior to cell enumeration and viability assays.
AC133+ cells were seeded in duplicate in liquid culture system at 2-4×10^4 cells/ml. […] Cultured cells were then counted at various time points using trypan blue exclusion method described above.

[2] = 20 μg/ml added on day 3, seven days culture

Question: With “WYPWMKKHHRQIKIWFQNRRMKWKK [HXP peptide]” as the substance, how does the “fold increase in cell number after 7 days in culture, in some cases” value (malignant cell lines; 20 μg/ml) read?
Answer: less than 1

Question: And the “proliferation of cells derived from colorectal, pancreatic, small cell lung, bladder, prostate, cervical, ovarian and gastric cancers” value (malignant cell lines; [2])?
Answer: sufficient to block the proliferation

Question: And the “proliferation of cells derived from renal, breast and non-small cell lung cancer” value (malignant cell lines; [2])?
Answer: no significant affect

Question: And the “effect of increased dose on proliferation of malignant cell lines” value (malignant cell lines; ten fold increase in dose)?
Answer: complete ablation of some malignancies

Question: And the “inhibition of leukaemic cell lines (cell growth)” value [1]?
Answer: inhibits

Question: And the “cell growth of AC133+ cells” value (AC133+ cells; 20 μg/ml, TPOFLK supplemented liquid culture)?
Answer: slowing their growth; also recorded: slowed

Question: And the “AC133+ cell proliferation after withdrawal of HXP peptide” value (AC133+ cells; withdrawal at 7 days)?
Answer: started to proliferate again
